Active and inactive are the calls of the source. No rule for the calls is given here.
Tested on: HEK-293T NF-kB luciferase reporter, luminescence counterscreen
Experiment: NF-kB reporter suppression in HEK-293T cells – luminescence, B-cell screen hits, counter-screen for BCR NF-kB inhibitor project, dose response (AID 489022)

SMILES	IC50
COc1ccc(-c2nsc(SCC(=O)Nc3cc(C)on3)n2)cc1	> 80 µM (inactive)
COc1ccc(NS(=O)(=O)c2ccc(-c3coc(C)n3)cc2)cc1OC	0.66 µM
CCn1c(=O)cc(OCC(=O)NCc2ccc(C)o2)c2ccccc21	> 80 µM (inactive)
CC(C)(C)C(=O)/C(=C/c1ccncc1)n1cncn1	20.9 µM (inactive)
COC(=O)C1=C(c2ccc(-c3ccccc3)c(F)c2)C[C@@H]2CC[C@H]1N2C(=O)N1CCCC1	1.83 µM
CC1CC(C)CN(S(=O)(=O)c2ccc(C(=O)NCCCn3ccnc3)cc2)C1 (stereo unspecified)	> 80 µM (inactive)
COc1ccc(-n2c(-c3ccc(Cl)cc3)c[n+]3c2CCc2ccccc2-3)cc1	3.18 µM
Cc1cc(C)cc(NC(=O)c2nnn(Cc3cc(C)ccc3C)c2N)c1	4.79 µM
COc1ccc(NS(=O)(=O)c2cc(NC(=O)c3cc(=O)c4ccccc4o3)ccc2OC)cc1	> 80 µM (inactive)
Cc1nn(C(C)(C)C)c(OC(=O)c2ccc(Br)o2)c1Sc1ccccc1	53.8 µM (inactive)
Cn1nnnc1Sc1ncnc2scc(Br)c12	4.26 µM
O=C(CCCN1C(=O)/C(=C/c2ccccc2Cl)SC1=S)NNC(=O)c1ccc(Cl)cc1Cl	> 80 µM (inactive)
O=C(CSCCO)Nc1ccc(C23CC4CC(CC(C4)C2)C3)cc1	3.86 µM
COCCNC(=O)CSCc1nc(-c2ccc(SC)cc2)oc1C	65.6 µM (inactive)
CN(C)S(=O)(=O)c1ccc(NC(=O)N2CCN(c3ccccc3)CC2)cc1	> 80 µM (inactive)
CCOC(=O)C1CCN(c2ncnc3c2cnn3-c2ccc(Cl)cc2)CC1	1.25 µM
CCOc1ccc(NC(=O)CCCc2cc(-c3ccc(OCC)cc3)on2)cc1	> 80 µM (inactive)
COc1cc(/C(C)=N\NC(N)=S)cc(OC)c1OC	> 80 µM (inactive)
O=C(N/N=C/c1cccnc1)c1cc(-c2ccccc2OCc2ccccc2)n[nH]1	12.7 µM
COc1ccc(OCc2cccc(C(=O)Nn3cc([N+](=O)[O-])cn3)c2)cc1	11.9 µM
Cc1ccc(C(=O)N2CCCC(c3ccc(Cl)cc3)=N2)cc1	36.5 µM (inactive)
COc1ccc(OC)c(C2CC(=O)Nc3cc(OC)c(OC)c(OC)c32)c1 (stereo unspecified)	> 80 µM (inactive)
O=C1CCCc2c1[nH]c1ccc(CN3CCCCC3)cc21	> 80 µM (inactive)
Cc1ccc(C(=O)NNC(=O)CCCN2C(=O)/C(=C/c3ccccc3Cl)SC2=S)cc1	30.8 µM (inactive)

SMILES	IC50
Nc1ccc(-c2cc3ccccc3oc2=O)cc1	3.53 µM
CN1CCN(C(=O)c2ccccc2N(Cc2ccccc2)S(=O)(=O)c2ccccc2)CC1	45.4 µM (inactive)
CC(C)(C)c1ccc(-c2noc(CCC(=O)NCC3CCCO3)n2)cc1 (stereo unspecified)	1.22 µM
C=CCn1c(O)c(C(C)=NC(C)c2ccccc2)c(=O)[nH]c1=O (stereo unspecified)	60.2 µM (inactive)
O=C(Nc1cccc(Oc2ccc3c(c2)C(=O)NC3=O)c1)c1cccs1	28.8 µM (inactive)
Cc1cc(N(C)C)ccc1N=Nc1ccc(N)cc1	64.3 µM (inactive)
CNC(=O)c1cccn(Cc2ccc(C(F)(F)F)cc2)c1=O	35.5 µM (inactive)
Cc1ccc(C)c(OCc2ccc(C(=O)NN)o2)c1	> 80 µM (inactive)
CCOc1ccc(-c2c[n+]3c(n2-c2ccccc2)CCCCC3)cc1	3.28 µM
Cc1csc(NC(=O)/C=C/c2ccc3c(c2)OCO3)n1	> 80 µM (inactive)
CC(C)(C)c1ccc(-c2noc(CCC(=O)N3CCOCC3)n2)cc1	35 µM (inactive)
CC(C)CN(C(=O)COC(=O)C12CC3CC(CC(C3)C1)C2)c1c(N)n(Cc2ccccc2)c(=O)[nH]c1=O	10.6 µM
COCCCNC(=O)COc1ccc(-c2nccc(-c3ccccn3)n2)cc1	48.1 µM (inactive)
COc1ccc(-c2ccc(C(C)=O)cc2)cc1[C@H]1[C@H]2C=CC[C@@H](C)[C@@H]2C(=O)N1Cc1ccccc1	14.2 µM
CCC(CC)C(=O)Nc1ccc(Sc2ccc([N+](=O)[O-])cc2)cc1	13.7 µM
COc1ccccc1/C=C1/SC(=S)N(CCC(=O)Nc2cccnc2)C1=O	37 µM (inactive)
CC1CCN(CCCNC(=O)COc2cc(=O)n(C)c3ccccc23)CC1	> 80 µM (inactive)
COc1ccc(/C=C\C(=O)O[C@@H]2C(O)C(O[C@@H]3OC(C)[C@H](O[C@@H]4OCC(O[C@H]5O[C@H](CO)[C@@H](O)C(O)C5O)C(O)C4O)C(O)C3O)[C@H](OC(=O)[C@]34CCC(C)(C)C[C@@H]3C3=CCC5[C@@]6(C)CC(O)C(O[C@@H]7OC(CO)C(O)[C@H](O)[C@H]7O)[C@@](C)(C(=O)O)C6CC[C@@]5(C)[C@]3(CO)CC4)O[C@H]2C)cc1 (stereo partly specified)	45.7 µM (inactive)
COc1cc(-c2nc(C(=O)NCC3CCCO3)cc3c2[nH]c2ccccc23)cc(OC)c1OC (stereo unspecified)	13.7 µM
O=C(CN1C(=O)c2ccccc2S1(=O)=O)c1ccccc1Cl	7 µM
Cc1c(CCC(=O)O)c(=O)oc2cc3oc4c(c3cc12)CCCC4	5.89 µM
CCOC(=O)/C=C(\C)Sc1cc(=O)oc2ccccc12	10.5 µM
N=c1c2c(n(Cc3ccc(Cl)cc3Cl)c3c1CCC3)CCCC2	3.43 µM
COC(=O)CSc1nnc(-c2sc3ccccc3c2Cl)o1	7.24 µM

SMILES	IC50
O=C(CCCN1C(=O)S/C(=C\c2ccccc2)C1=O)NNC(=O)c1ccccc1O	1.64 µM
COc1ccc(C(=O)Nc2cccc(NC(=O)c3ccc(OC)c(OC)c3)n2)cc1OC	15.4 µM
CC(C)(C)c1ccc(-c2noc(CCC(=O)Nc3cccnc3)n2)cc1	0.55 µM
CCN1C(=O)c2cccc3c(S(=O)(=O)Nc4ccccn4)ccc1c23	9.44 µM
CCn1c(=O)cc(SCC(=O)N2CCC(C)CC2)c2ccccc21	70.9 µM (inactive)
CCN(CC(=O)Nc1c(F)cccc1F)C(=O)C1(c2ccccc2)CC1	> 80 µM (inactive)
CCCCCC/C=C/c1ccc(OC)c([C@H]2[C@H]3C=CC[C@@H](C)[C@@H]3C(=O)N2Cc2ccccc2)c1	> 80 µM (inactive)
N=c1c(C(=O)NC2CCCC2)cc2c(=O)n3ccccc3nc2n1CCN1CCOCC1	> 80 µM (inactive)
CCN(CC(=O)Nc1c(F)cccc1F)C(=O)c1cc([N+](=O)[O-])ccc1N1CCCCC1	> 80 µM (inactive)
CC1Cc2ccccc2N1S(=O)(=O)c1cnc(Cl)c(Cl)c1 (stereo unspecified)	77.8 µM (inactive)
N=c1ccn2c(n1)O[C@H]1[C@H](O)[C@@H](CO)O[C@H]12	> 80 µM (inactive)
Cc1csc(NC(=O)CCc2c(C)nc3cc(-c4ccc(Cl)cc4)nn3c2C)n1	10.2 µM
COc1ccc(OCc2cccc(C(=O)Nc3cc(C)on3)c2)cc1	50.6 µM (inactive)
O=C(CCCN1C(=O)/C(=C/c2ccccc2Cl)SC1=S)Nc1cccnc1	28.7 µM (inactive)
COc1ccc(C(=O)n2nc(-c3ccc(Cl)cc3)nc2N)cc1OC	> 80 µM (inactive)
O=C(Nc1cccc(S(=O)(=O)Nc2ccc(Cl)cc2)c1)c1ccc(Cl)nc1	0.79 µM
Cc1cc(NC(=O)CCCN2C(=O)/C(=C/c3ccccc3Cl)SC2=S)no1	> 80 µM (inactive)
CCn1c(=O)cc(OCC(=O)N(C)C2CCCCC2)c2ccccc21	> 80 µM (inactive)
CN1C(=O)c2cccc3c(S(=O)(=O)Nc4ccccc4F)ccc1c23	69.7 µM (inactive)
CCn1c(=O)c2cc(C(=O)NCc3cccs3)sc2c2ccccc21	> 80 µM (inactive)
Cc1[nH]c2ccccc2c1C(=O)CN1C(=O)NC2(CC(C)CC(C)(C)C2)C1=O (stereo unspecified)	43.3 µM (inactive)
COc1cc(/C=N/Nc2nc(Nc3ccccc3)nc(N3CCOCC3)n2)ccc1OC(=O)c1ccco1	> 80 µM (inactive)
CCN(CC(=O)Nc1c(F)cccc1F)C(=O)c1cc(S(=O)(=O)N2CCOCC2)ccc1N1CCCC1	> 80 µM (inactive)
O=[N+]([O-])c1ccc(Sc2cc[n+]([O-])c3ccccc23)c([N+](=O)[O-])c1	> 80 µM (inactive)

SMILES	IC50
CCc1sc(C(=O)Nc2cccc(-n3cnnn3)c2)cc1C	> 80 µM (inactive)
O=C(Nc1nc2c(Br)cc(Br)cc2c(=O)s1)c1ccco1	> 80 µM (inactive)
O=C(Nc1nc2nc(-c3ccccc3)cc(-c3ccccc3)n2n1)c1ccco1	23.5 µM (inactive)
COc1ccc(/C=N\NC(=O)c2sccc2C)cc1Cn1nc(C)cc1C	25.4 µM (inactive)
COc1ccc(-c2noc(CCCC(=O)Nc3ccc(C(N)=O)cc3)n2)cc1	27.3 µM (inactive)
CNC(=O)c1cc(Nc2nnc(-c3ccc(O)cc3)c3ccccc23)ccc1OC	> 80 µM (inactive)
CCOCCCNc1nc2c(C)cccn2c(=O)c1/C=C1\SC(=S)N(C(C)CC)C1=O (stereo unspecified)	> 80 µM (inactive)
CCOC(=O)c1nn(-c2ccccc2)c(C#N)c1NC(=O)c1nn(CC)cc1Br	> 80 µM (inactive)
O=C(CCCN1C(=O)/C(=C/c2ccccc2Cl)SC1=S)Nc1ccccn1	23.7 µM (inactive)
COc1ccc(OCc2cccc(C(=O)NN)c2)cc1	17.4 µM
Cc1cc(OCC(=O)NC2CC2)c2c(C)c(C)c(=O)oc2c1	> 80 µM (inactive)
Cc1c(NC(=O)/C=C/c2cn(-c3ccccc3)nc2-c2ccccc2)c(=O)n(-c2ccccc2)n1C	> 80 µM (inactive)
CCCCCCn1c(-c2ccco2)nc2oc3cc(OC)ccc3c(=O)c2c1=O	> 80 µM (inactive)
CCN(CC)c1ccc(/C=N/N=C(c2ccccc2)c2ccccc2)c(O)c1	> 80 µM (inactive)
COc1ccc(NC(=S)NCc2ccccc2)c(OC)c1	> 80 µM (inactive)
CCn1c(=O)cc(OCC(=O)Nc2ccc(OC)c(OC)c2)c2ccccc21	70.3 µM (inactive)
Cn1c(=O)cc(Nc2ccccc2)c2c(=O)n(-c3ccccc3)c(=O)n(-c3ccccc3)c21	79.1 µM (inactive)
Cc1ccc(NC(=O)C2CCC(CNc3c(N4CCC(C)CC4)c(=O)c3=O)CC2)cc1F (stereo unspecified)	> 80 µM (inactive)
Cc1nc2cc(-c3ccc(Cl)cc3)nn2c(C)c1CCC(=O)NC(C)c1ccc2c(c1)OCCO2 (stereo unspecified)	11.5 µM
C=CCOc1ccc(/C=C2\SC(=S)N(CCC(=O)O)C2=O)cc1	51.4 µM (inactive)
COc1ccc(-c2noc(N3CCC(C(=O)Nc4cccc(OC)c4)CC3)n2)cc1	17.9 µM
COc1ccc(/C=C/c2ccccc2)cc1[C@H]1[C@H]2C=CC[C@@H](C)[C@@H]2C(=O)N1Cc1ccccc1	> 80 µM (inactive)
Cc1cc(C)c(S(=O)(=O)NCc2ccncc2)c(C)c1	0.97 µM
CCN1CCN(C(=O)CSc2cc(=O)n(CC)c3ccccc23)CC1	> 80 µM (inactive)
